What is called solubility is the dissolved amount per volume that the medium holds. The term logD denotes the decadic logarithm of the distribution of all forms, ionised or not, between an organic phase and buffer at a given pH.

We go through seven compounds from article PMC7073886, “Structure–Bioactivity Relationships of Lapatinib Derived Analogs against Schistosoma mansoni” (ACS Medicinal Chemistry Letters, 2020).

Structures are written as SMILES. In brackets after ≈: the same amount, converted by molar mass. Where two headings read alike, the source gives them in different places.

Series [1] is described as follows: Aqueous pH 7.4 solubility. The series is classed as physicochemical. The settings on record: phosphate buffer pH 7.4, 25 °C, 20-24 h, read-out: aq sol (aqueous solubility).
In the next series the test system is adult S. mansoni. Put plainly: Phenotypic screen of adult S. mansoni worms, severity scores and descriptors. It counts as cell-based, Schistosoma mansoni. The conditions noted are these: for Descriptors (10 µM) 1 h / Severity Scores (10 μM) 1 h / Descriptors (10 µM) 5 h / Severity Scores (10 μM) 5 h / Severity Scores (10 μM) 24 h / Severity Scores (10 μM) 48 h / Descriptors (10 µM) 24 h / Descriptors (10 µM) 48 h: adult S. mansoni; for Descriptors (10 µM) 1 h / Descriptors (10 µM) 5 h / Descriptors (10 µM) 24 h / Descriptors (10 µM) 48 h: phenotypic descriptors; for Severity Scores (10 μM) 1 h / Severity Scores (10 μM) 5 h / Severity Scores (10 μM) 24 h / Severity Scores (10 μM) 48 h: scale 0 (no activity) to 4 (maximal activity). In outline:
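Adult S. mansoni (NMRI isolate, ≥42 days old) were co-incubated with compounds and changes in motility, density, shape and adherence recorded visually over time and concentration. Descriptors converted to severity scores from 0 (no activity) to 4 (maximal).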

The next series has as its system HepG2 cells. Put plainly: Drug toxicity to HepG2 cells (MTT). It counts as cell-based. The conditions noted are these: HepG2 cells, 48 hours incubation, MTT.
A short description of series [2]: Human liver microsomal Clint. The series is classed as in vitro ADME. The settings on record: human liver microsomes, intrinsic clearance. Background: Microsomes from liver hold many membrane-bound enzymes, among them those of drug oxidation.
A short description of another series: Rat hepatocyte Clint. It counts as in vitro ADME. The conditions noted are these: rat hepatocytes, intrinsic clearance.
Series [3] is described as follows: Log D7.4 shake-flask octanol-water. The series is classed as physicochemical. The conditions noted are these: pH 7.4.
The nature of series [4]: Human plasma protein binding (equilibrium dialysis). The settings on record: for human PPB (plasma protein binding): 10 µM, 37 °C. It counts as in vitro ADME.

With `O=S(=O)(c1ccc(-c2ccc3nccc(Nc4ncccn4)c3c2)cc1)N1CCOCC1` [S3b], in series [1] (aqueous buffer, thermodynamic from solid), the solubility is 34 µM (≈ 15.2 µg/mL). In the series with adult S. mansoni, the “Descriptors (10 µM) 1 h” value is on record as “S, on sides” and the “Descriptors (10 µM) 5 h” value is given as “S, on sides”. Moreover, in the series on adult S. mansoni (10 μM), the “Severity Scores (10 μM) 1 h” value was determined as 2, the “Severity Scores (10 μM) 5 h” value worked out at 2, the “Severity Scores (10 μM) 24 h” value was 3 and the “Severity Scores (10 μM) 48 h” value stood at 3. In addition, the “bioactivity against adult S. mansoni” value with adult S. mansoni (adult schistosomes, 10 μM) is “moderate activity after 1 h”. For the same compound, the “HepG2 TC50” value in the series on HepG2 cells was more than 34 µM. For the same compound, the microsomal CLint in series [2] (read-out: HLM Clint) came to 270 µL/min/mg. Further, the hepatocyte CLint in “Rat hepatocyte Clint” (read-out: RH CLint) was determined as 85 µL/min/1e6 cells. In series [3], this compound returned a logD of 3.7. Further, in series [4] (pH 7.4, 37 °C, read-out: human PPB (plasma protein binding) (converted)), the fraction unbound at 10 µM is 0.01.

As to `O=S(=O)(c1ccc(-c2ccc3nccc(NCCN4CCCC4)c3c2)cc1)N1CCOCC1` [S3e], in series [1], the solubility was determined as 870 µM (≈ 406 µg/mL). In addition, in the series with adult S. mansoni, the “Descriptors (10 µM) 1 h” value was “none” and the “Descriptors (10 µM) 5 h” value was “none”. Moreover, in the series on adult S. mansoni (10 μM), the “Severity Scores (10 μM) 1 h” value is given as 0, the “Severity Scores (10 μM) 5 h” value stood at 0, the “Severity Scores (10 μM) 24 h” value is given as 1 and the “Severity Scores (10 μM) 48 h” value is reported as 3. Moreover, the “HepG2 TC50” value in the series on HepG2 cells is 9.2 µM. In series [2], the “HLM Clint” value turned out to be 28 μL/min/mg protein. The “RH CLint” value in the series “Rat hepatocyte Clint” was 10 µL/min/10^6 cells. For the same compound, the “LogD 7.4” value in series [3] was found to be 2.2. Also, the “human PPB (plasma protein binding)” value in series [4] was found to be 73%.

In the case of `O=S(=O)(c1ccc(-c2ccc3nccc(NC4CCOCC4)c3c2)cc1)N1CCOCC1` [S3f], in series [1], the solubility turned out to be 7 µM (≈ 3.17 µg/mL). In the series with adult S. mansoni (10 μM), the “Severity Scores (10 μM) 1 h” value was determined as 1, the “Severity Scores (10 μM) 5 h” value was 1, the “Severity Scores (10 μM) 24 h” value turned out to be 1 and the “Severity Scores (10 μM) 48 h” value was determined as 1. Moreover, in the series on HepG2 cells, the “HepG2 TC50” value worked out at 16 µM. Besides, the “HLM Clint” value in series [2] is 59 μL/min/mg protein. Further, in the series “Rat hepatocyte Clint”, the “RH CLint” value came to 20 µL/min/10^6 cells. In addition, the “LogD 7.4” value in series [3] turned out to be 2.3. Also, the “human PPB (plasma protein binding)” value in series [4] was 70%.

With `O=S(=O)(c1ccc(-c2ccc3nccc(NCC4CCOCC4)c3c2)cc1)N1CCOCC1` [S3g], the solubility in series [1] amounted to 38 µM (≈ 17.8 µg/mL). In the series on adult S. mansoni, the “Descriptors (10 µM) 1 h” value was “none”, the “Descriptors (10 µM) 5 h” value is listed as “none”, the “Descriptors (10 µM) 24 h” value is reported as “none” and the “Descriptors (10 µM) 48 h” value is “none”. In addition, in the series on adult S. mansoni (10 μM), the “Severity Scores (10 μM) 1 h” value came out at 0, the “Severity Scores (10 μM) 5 h” value came out at 0, the “Severity Scores (10 μM) 24 h” value came to 0 and the “Severity Scores (10 μM) 48 h” value is 0. For the same compound, the “HepG2 TC50” value in the series on HepG2 cells was found to be 32 µM. Moreover, in series [2], the “HLM Clint” value is 70 μL/min/mg protein. For the same compound, the “RH CLint” value in “Rat hepatocyte Clint” is 72 µL/min/10^6 cells. Further, the “LogD 7.4” value in series [3] was found to be 2.7. Moreover, the “human PPB (plasma protein binding)” value in series [4] amounted to 74%.

With `O=S(=O)(c1ccc(-c2ccc3nccc(NCCC4CCOCC4)c3c2)cc1)N1CCOCC1` [S3h], the solubility in series [1] came out at 200 µM (≈ 96.3 µg/mL). Further, in the series with adult S. mansoni, the “Descriptors (10 µM) 1 h” value was “none”, the “Descriptors (10 µM) 5 h” value is recorded as “none”, the “Descriptors (10 µM) 24 h” value was “none” and the “Descriptors (10 µM) 48 h” value is reported as “none”. In the series on adult S. mansoni (10 μM), the “Severity Scores (10 μM) 1 h” value is 0, the “Severity Scores (10 μM) 5 h” value came to 0, the “Severity Scores (10 μM) 24 h” value turned out to be 0 and the “Severity Scores (10 μM) 48 h” value amounted to 0. In the series on HepG2 cells, the “HepG2 TC50” value stood at 21 µM. Further, in series [2], the “HLM Clint” value stood at 110 μL/min/mg protein. Moreover, the “RH CLint” value in the series “Rat hepatocyte Clint” came to 100 µL/min/10^6 cells. Besides, the “LogD 7.4” value in series [3] is reported as 2.8. Further, the “human PPB (plasma protein binding)” value in series [4] is on record as 82%.

Regarding `CN1CCCN(c2ncc(-c3ccc4nccc(Nc5cnccn5)c4c3)cn2)CC1` [S3i], in series [1], the solubility was 990 µM (≈ 408 µg/mL). In the series with adult S. mansoni, the “Descriptors (10 µM) 1 h” value is given as “none”, the “Descriptors (10 µM) 5 h” value is listed as “none” and the “Descriptors (10 µM) 24 h” value was “none”. In the series with adult S. mansoni (10 μM), the “Severity Scores (10 μM) 1 h” value is recorded as 0, the “Severity Scores (10 μM) 5 h” value was found to be 0 and the “Severity Scores (10 μM) 24 h” value is 0. In addition, in the series with HepG2 cells, the “HepG2 TC50” value is more than 37 µM. The “HLM Clint” value in series [2] stood at 48 μL/min/mg protein. The “RH CLint” value in the series “Rat hepatocyte Clint” was 12 µL/min/10^6 cells. Further, the “LogD 7.4” value in series [3] was found to be 2.5. The “human PPB (plasma protein binding)” value in series [4] was 81%.

As to `CN1CCCN(c2ncc(-c3ccc4nccc(Nc5ccncn5)c4c3)cn2)CC1` [S3j], the solubility in series [1] is recorded as 910 µM (≈ 375 µg/mL). For the same compound, in the series with adult S. mansoni, the “Descriptors (10 µM) 1 h” value is on record as “none”, the “Descriptors (10 µM) 5 h” value was “none” and the “Descriptors (10 µM) 24 h” value is reported as “none”. Besides, in the series on adult S. mansoni (10 μM), the “Severity Scores (10 μM) 1 h” value is reported as 0, the “Severity Scores (10 μM) 5 h” value came to 0 and the “Severity Scores (10 μM) 24 h” value is on record as 0. In the series with HepG2 cells, the “HepG2 TC50” value was more than 37 µM. Moreover, in series [2], the “HLM Clint” value amounted to 87 μL/min/mg protein. Also, the “RH CLint” value in the series “Rat hepatocyte Clint” is listed as 19 µL/min/10^6 cells. Besides, the “LogD 7.4” value in series [3] is recorded as 2.2. Moreover, the “human PPB (plasma protein binding)” value in series [4] is given as 61%.
